From patent US20200354348A1, “SEMISYNTHETIC AURONES AND METHODS OF USE THEREOF” (University of Kentucky Research Foundation, priority 2018, published 2020)

Assays:
[1] = test system: LS174T cells; assay: Proliferation inhibition assay, LS174T; assay type: cell-based; conditions: for inhibition at 10 µM / inhibition at 1 µM / inhibition at 0.3 µM: Homo sapiens, LS174T; for inhibition at 0.3 µM: 300 nM
Protocol: (§1) Cell Culture. LS174T (colon cancer cells), PC-3 (prostate cancer cells), MCF-7 (beast) and A549 (lung) were cultured in the medium recommended by American Type Culture Collection at 37° C. with 5% CO2 atmosphere in a water jacketed incubator. Ovcar-8 and NCI/ADR-RES are gifts from Dr. Markos Leggas. Alpha-tubulin antibodies, TRITC-conjugated anti-rabbit antibody.
(§2) Proliferation inhibition assay. Cancer cells were seeded into 24-well plates at a density of 20,000 cells per well in 1 mL of culture medium and cultured overnight at 37° C. Compounds and the vehicle control DMSO were added to the cells. After 6 days, medium was removed and 100 μL of trypsin was added. Then the cells resuspended in pbs were counted by Vi-CELL XR 2.03 (Beckman Coulter, Inc. USA). The ratio R of the number of viable cells in the compound treatment group to the number of viable cells in DMSO treatment group was taken as relative growth, and the percentage growth inhibition was calculated as: (1−R)*100. For initial testing, compounds were added to the cells at a final concentration 10 μM. Active compounds at 10 μM would be tested at lower concentrations.

[2] = test system: PC-3 cells; assay: Proliferation inhibition assay, PC-3; assay type: cell-based
Protocol: as §1, §2

[3] = Homo sapiens, PC-3, 10 μM, Table 2
[4] = Homo sapiens, PC-3, 1 μM, Table 1
[5] = Homo sapiens, PC-3, 10 μM, Table 1
[6] = Homo sapiens, PC-3, 1 μM, Table 2
[7] = Homo sapiens, PC-3, 300 nM, Table 2

## COc1ccc2c(c1)c(/C=C1\Oc3cc(OCc4c(F)cccc4Cl)ccc3C1=O)cn2C [Aurone 4k]
[1]; 10 μM, Table 2
  inhibition at 10 µM: 53 ± 8.9%
[2]; [3]
  inhibition at 10 µM: 57 ± 18%

## CCn1cc(/C=C2\Oc3cc(OCc4c(Cl)cccc4Cl)ccc3C2=O)c2ccccc21 [Aurone 4q, (2Z)-6-[(2,6-Dichlorobenzyl)oxy]-2-[(1-ethyl-1H-indol-3-yl)methylene]-1-benzofuran-3(2H)-one]
other
  melting point: 213 to 215 °C

## O=C1/C(=C/c2ccc(N3CCCC3)cc2)Oc2cc(O)ccc21 [Aurone 2a]
[1]; 1 μM, Table 1
  inhibition at 1 µM: 0%
[1]; 10 μM, Table 1
  inhibition at 10 µM: 23 ± 2.9%
[2]; [4]
  inhibition at 1 µM: 2.1 ± 7.1%
[2]; [5]
  inhibition at 10 µM: 95 ± 4.7%

## O=C1/C(=C/c2c[nH]c3ccccc23)Oc2cc(O)ccc21 [Aurone 3i]
[1]; 10 μM, Table 1
  inhibition at 10 µM: 44 ± 8.6%
[2]; [5]
  inhibition at 10 µM: 20 ± 6.8%

## COc1ccc2nc(/C=C3\Oc4cc(O)ccc4C3=O)ccc2c1 [Aurone 3f]
[1]; 10 μM, Table 1
  inhibition at 10 µM: 6.1 ± 13%
[2]; [5]
  inhibition at 10 µM: 8.4 ± 33%

## CCn1cc(/C=C2\Oc3cc(O)ccc3C2=O)c2cc(OC)ccc21 [Aurone 3l]
[1]; 1 μM, Table 1
  inhibition at 1 µM: 4.5 ± 7.3%
[1]; 10 μM, Table 1
  inhibition at 10 µM: 83 ± 1.2%
[2]; [4]
  inhibition at 1 µM: 13 ± 9.5%
[2]; [5]
  inhibition at 10 µM: 69 ± 16%

## COc1ccc2c(c1)c(/C=C1\Oc3cc(OCc4ccc(F)cc4Cl)ccc3C1=O)cn2C [Aurone 4j, (2Z)-6-[(2-Chloro-4-fluorobenzyl)oxy]-2-[(5-methoxy-1-methyl-1H-indol-3-yl)methylene]-1-benzofuran-3(2H)-one]
other
  melting point: 184 to 186 °C

## O=C1/C(=C/c2ccnc3ccccc23)Oc2cc(O)ccc21 [Aurone 3h]
[1]; 10 μM, Table 1
  inhibition at 10 µM: 34 ± 11%
[2]; [4]
  inhibition at 1 µM: 16 ± 3.5%
[2]; [5]
  inhibition at 10 µM: 63 ± 7.2%

## COc1ccc2c(c1)c(/C=C1\Oc3cc(O)ccc3C1=O)cn2C [Aurone 3k, (2Z)-6-Hydroxy-2-[(5-methoxy-1-methyl-1H-indol-3-yl)methylene]-1-benzofuran-3(2H)-one]
other
  melting point: 301 to 303 °C

## CCN(CC)c1ccc(/C=C2\Oc3cc(OCc4cc(F)ccc4F)ccc3C2=O)c(OC)c1 [Aurone 4t, (2Z)-6-[(2,5-Difluorobenzyl)oxy]-2-[4-(diethylamino)-2-methoxybenzylidene]-1-benzofuran-3(2H)-one]
other
  melting point: 184 to 186 °C

## O=C1/C(=C/c2ccccn2)Oc2cc(O)ccc21 [Aurone 3a, (2Z)-6-Hydroxy-2-(pyridin-2-ylmethylene)-1-benzofuran-3(2H)-one]
other
  melting point: 246 to 248 °C

## O=C1/C(=C/c2ccc(N3CCCC3)cc2)Oc2cc(O)ccc21 [Aurone 2a, (2Z)-6-Hydroxy-2-(4-pyrrolidin-1-ylbenzylidene)-1-benzofuran-3(2H)-one]
other
  melting point: > 220 °C

## COc1ccc2c(c1)c(/C=C1\Oc3cc(O)ccc3C1=O)cn2C [Aurone 3k]
[1]; 1 μM, Table 1
  inhibition at 1 µM: 13 ± 2.4%
[1]; 10 μM, Table 1
  inhibition at 10 µM: 63 ± 0.7%
[2]; [4]
  inhibition at 1 µM: 17 ± 5.5%
[2]; [5]
  inhibition at 10 µM: 35 ± 28%

## O=C1/C(=C/c2ccc(N3CCSCC3)cc2)Oc2cc(O)ccc21 [Aurone 2d, (2Z)-6-Hydroxy-2-[(4-thiomorpholin-4-ylbenzylidene)]-1-benzofuran-3(2H)-one]
other
  melting point: > 220 °C

## Cn1cc(/C=C2\Oc3cc(OCc4ccccc4F)ccc3C2=O)c2ccccc21 [Aurone 4d, (2Z)-6-[(2-Fluorobenzyl)oxy]-2-[(1-methyl-1H-indol-3-yl)methylene]-1-benzofuran-3(2H)-one]
other
  melting point: 241 to 243 °C

## Cn1cc(/C=C2\Oc3cc(OCc4ccccc4F)ccc3C2=O)c2ccccc21 [Aurone 4d]
[1]; 10 μM, Table 2
  inhibition at 10 µM: 7.1 ± 17%
[2]; [3]
  inhibition at 10 µM: 0%

## O=C1/C(=C/c2ccnc3ccccc23)Oc2cc(O)ccc21 [Aurone 3h, (2Z)-6-Hydroxy-2-(quinolin-4-ylmethylene)-1-benzofuran-3(2H)-one]
other
  melting point: 278 to 280 °C

## COc1ccc2c(c1)c(/C=C1\Oc3c(ccc(O)c3C)C1=O)cn2C [Aurone 3o, (2Z)-6-Hydroxy-2-[(5-methoxy-1-methyl-1H-indol-3-yl)methylene]-7-methyl-1-benzofuran-3(2H)-one]
other
  melting point: 297 to 299 °C

## Cn1cc(/C=C2\Oc3cc(OCc4c(F)cccc4F)ccc3C2=O)c2ccccc21 [Aurone 4f]
[1]; 10 μM, Table 2
  inhibition at 10 µM: 0.5 ± 1.7%
[2]; [3]
  inhibition at 10 µM: 82 ± 4.3%

## COc1ccc2c(c1)c(/C=C1\Oc3c(ccc(OCc4c(Cl)cccc4Cl)c3C)C1=O)cn2C [Aurone 4m, (2Z)-6-[(2,6-Dichlorobenzyl)oxy]-2-[(5-methoxy-1-methyl-1H-indol-3-yl)methylene]-7-methyl-1-benzofuran-3(2H)-one]
other
  melting point: 241 to 243 °C

## CCN(CC)c1ccc(/C=C2\Oc3cc(O)ccc3C2=O)c(OC)c1 [Aurone 2f, (2Z)-2-[4-(Diethylamino)-2-methoxybenzylidene]-6-hydroxy-1-benzofuran-3(2H)-one]
other
  melting point: > 220 °C

## Cc1c(O)ccc2c1O/C(=C\c1cn(C)c3ccccc13)C2=O [Aurone 3n, (2Z)-6-Hydroxy-7-methyl-2-[(1-methyl-1H-indol-3-yl)methylene]-1-benzofuran-3(2H)-one]
other
  melting point: 293 to 295 °C

## COc1cccc2ccc(/C=C3\Oc4cc(O)ccc4C3=O)nc12 [Aurone 3g]
[1]; 1 μM, Table 1
  inhibition at 1 µM: 20 ± 9.1%
[1]; 10 μM, Table 1
  inhibition at 10 µM: 91 ± 2.4%
[2]; [4]
  inhibition at 1 µM: 40 ± 8.4%
[2]; [5]
  inhibition at 10 µM: 97 ± 0.8%

## O=C1/C(=C/c2ccccn2)Oc2cc(O)ccc21 [Aurone 3a]
[1]; 10 μM, Table 1
  inhibition at 10 µM: 0%
[2]; [5]
  inhibition at 10 µM: 8.8 ± 15%

## CCn1cc(/C=C2\Oc3cc(OCc4ccccc4F)ccc3C2=O)c2cc(OC)ccc21 [Aurone 4n]
[1]; 1 μM, Table 2
  inhibition at 1 µM: 0%
[1]; 10 μM, Table 2
  inhibition at 10 µM: 28 ± 11%
[2]; [6]
  inhibition at 1 µM: 28 ± 15%
[2]; [3]
  inhibition at 10 µM: 52 ± 23%

## CCn1cc(/C=C2\Oc3cc(OCc4c(Cl)cccc4Cl)ccc3C2=O)c2ccccc21 [Aurone 4q]
[1]; Table 2
  inhibition at 0.3 µM: 0%
[1]; 1 μM, Table 2
  inhibition at 1 µM: 93 ± 2.5%
[1]; 10 μM, Table 2
  inhibition at 10 µM: 96%
[2]; Homo sapiens, PC-3, 100 nM, Table 2
  inhibition at 0.1 µM: 17 ± 6.8%
[2]; [7]
  inhibition at 0.3 µM: 75 ± 7.7%
[2]; [6]
  inhibition at 1 µM: 98 ± 1%
[2]; [3]
  inhibition at 10 µM: 97 ± 0.6%

## CCn1cc(/C=C2\Oc3cc(OCC#N)ccc3C2=O)c2cc(O)ccc21 [Aurone 4b]
[1]; 1 μM, Table 2
  Inhibition of LS174T Cells 1 μM: 26 ± 15%
[1]; 10 μM, Table 2
  Inhibition of LS174T Cells 10 μM: 83 ± 4.8%
[2]; 300 nM, Table 2
  Inhibition of PC-3 Cells 300 nM: 24 ± 11%
[2]; 1 μM, Table 2
  Inhibition of PC-3 Cells 1 μM: 96 ± 2%
[2]; 10 μM, Table 2
  Inhibition of PC-3 Cells 10 μM: 96 ± 1.6%

## CCn1cc(/C=C2\Oc3cc(OCc4c(F)cccc4Cl)ccc3C2=O)c2ccccc21 [Aurone 4p]
[1]; 1 μM, Table 2
  inhibition at 1 µM: 5.1 ± 19%
[1]; 10 μM, Table 2
  inhibition at 10 µM: 93 ± 3.2%
[2]; [7]
  inhibition at 0.3 µM: 44 ± 5.6%
[2]; [6]
  inhibition at 1 µM: 91 ± 2.2%
[2]; [3]
  inhibition at 10 µM: 95 ± 4.4%

## O=C1/C(=C/c2nccc3ccccc23)Oc2cc(O)ccc21 [Aurone 3d]
[1]; 1 μM, Table 1
  inhibition at 1 µM: 2.7 ± 6.4%
[1]; 10 μM, Table 1
  inhibition at 10 µM: 79 ± 3.6%
[2]; [5]
  inhibition at 10 µM: 88 ± 5.5%

## O=C1/C(=C/c2cccnc2)Oc2cc(O)ccc21 [Aurone 3b]
[1]; 10 μM, Table 1
  inhibition at 10 µM: 11 ± 3.6%
[2]; [5]
  inhibition at 10 µM: 0%

## CCn1cc(/C=C2\Oc3cc(OCc4c(Cl)cccc4Cl)ccc3C2=O)c2cc(OC)ccc21 [Aurone 4o]
[1]; Table 2
  inhibition at 0.3 µM: 3.3 ± 24%
[1]; 1 μM, Table 2
  inhibition at 1 µM: 7.3 ± 18%
[1]; 10 μM, Table 2
  inhibition at 10 µM: 94 ± 1.7%
[2]; [7]
  inhibition at 0.3 µM: 3.9 ± 11%
[2]; [6]
  inhibition at 1 µM: 67 ± 5.8%
[2]; [3]
  inhibition at 10 µM: 96 ± 1.1%

## Cn1cc(/C=C2\Oc3cc(O)ccc3C2=O)c2ccccc21 [Aurone 3j]
[1]; 10 μM, Table 1
  inhibition at 10 µM: 54 ± 15%
[2]; [5]
  inhibition at 10 µM: 41 ± 25%

## O=C1/C(=C/c2ccc3ccccc3n2)Oc2cc(O)ccc21 [Aurone 3e]
[1]; 1 μM, Table 1
  inhibition at 1 µM: 7.7 ± 9.9%
[1]; 10 μM, Table 1
  inhibition at 10 µM: 96 ± 0.9%
[2]; [4]
  inhibition at 1 µM: 26 ± 8.6%
[2]; [5]
  inhibition at 10 µM: 99 ± 0.2%

## Cn1cc(/C=C2\Oc3cc(OCc4c(F)cccc4Cl)ccc3C2=O)c2ccccc21 [Aurone 4h]
[1]; 10 μM, Table 2
  inhibition at 10 µM: 38 ± 2%
[2]; [6]
  inhibition at 1 µM: 0%
[2]; [3]
  inhibition at 10 µM: 31 ± 40%

## O=C1/C(=C/c2ccc(N3CCOCC3)cc2)Oc2cc(O)ccc21 [Aurone 2b]
[1]; 10 μM, Table 1
  inhibition at 10 µM: 0%
[2]; [5]
  inhibition at 10 µM: 7.8 ± 7.7%

## Cn1cc(/C=C2\Oc3cc(OCc4ccccc4Cl)ccc3C2=O)c2ccccc21 [Aurone 4e]
[1]; 10 μM, Table 2
  inhibition at 10 µM: 0%
[2]; [3]
  inhibition at 10 µM: 20 ± 6.6%
